Values after ≈ are worked out from the molar mass of the structure shown. Where two headings read alike, the source gives them in different places.
Experiments:
[1] = system: lymphedema induced in mice; assay: Prophylactic effect on lymphedema formation, surgically induced murine lymphedema model (volume); format: in vivo, mouse; conditions: 7th day after surgery, oral administration 7 days before surgery, then once every two days, vs control group
Experimental: All animal tests in the following examples were performed after obtaining approvals by the Institutional Animal Care and Use Committee (IACUC) of Sungkyunkwan University School of Medicine (Approval No.: […]-20150037). All methods were performed according to the approved guidelines. […] Briefly, major lymphatic sites including inguinal lymph nodes, popliteal lymph nodes, deep inguinal lymph nodes and femoral lymphatic vessels were removed, and the lower right leg of the mouse was limitedly cauterized under anesthesia.
Compounds 1, 7m, and 14a were each orally administered to mice for 7 days before surgical induction of lymphedema in mice.
On the other hand, in the control group, the compound 1 treatment group, the compound 7m treatment group, and the compound 14a treatment group, lymphedema was induced through surgery. After surgery, the compounds were administered once every two days.
The volume of lymphedema was measured on the 7th day after surgery, and the size of the lymphedema was recorded using a caliper ruler by a person who was blinded to the treatment status of the mice.

TNFα = assay: mRNA expression of TNFα in lymphedema tissue; format: in vivo; conditions: 7th day after surgery, mouse
From the text: As a result, it was confirmed that the expression level of TNFα mRNA was decreased in the compound 1 treatment group and the compound 14a treatment group (with respect to the control group, *: P<0.05; with respect to compound 1, #: P<0.05).

PPARγ = assay: Immunofluorescence staining of PPARγ in epidermal layer of lymphedema tissue; format: in vivo; conditions: mouse
From the text: (§1) Tissue samples were collected on the 7th day after surgery to induce lymphedema at a location 15 mm-25 mm from the right leg of the mouse. The harvested tissue samples were fixed with 10% formalin solution, and the specimens were cut to a thickness of 5 μm. Sections were deparaffinized in 100% xylene, rehydrated with a series of 100% ethanol, 95% ethanol, 90% ethanol, 80% ethanol, and 70% ethanol, and washed with water. Sections were reacted with hematoxylin solution at room temperature. After washing in PBS, sections were stained with eosin at room temperature. Images were acquired by a Pannoramic viewer microscope (3[…] Ltd., Hungary). Prepared slides were incubated using anti-mouse PPARγ (Santa Cruz Biotechnology, USA) and Alexa Fluor 488 and DAPI (Life Technologies, USA). Samples were analyzed using a Nikon ECLIPSE 80i microscope (Nikon Instruments Inc., Japan).
In addition, peroxisome […] (PPARγ) is a major regulator of lipogenesis, and as shown in FIG. 4B showing the results of immunofluorescence staining, the distribution of PPARγ in the epidermal layer of lymphedema tissue after treatment with compound 1 and compound 14a was suppressed.

[2] = system: LPS-induced TNFα production in mouse peritoneal macrophages; assay: LPS-induced TNFα production in mouse peritoneal macrophages (ELISA); format: cell-based; conditions: Mus musculus, Peritoneal macrophage, 24 h, mouse peritoneal macrophages, 100 ng/ml LPS 24 h; measured twice, mean ± standard deviation; read-out: IC50, dose-dependent inhibition of TNFα production in macrophages
Experimental: To isolate peritoneal macrophages, male Balb/c mice were intraperitoneally injected with 2 ml of 3.5% sterile thioglycolate (B D, Sparks, Md., USA) 4 days before being sacrificed. Mice were sacrificed by cervical dislocation, and peritoneal secretory cells were aseptically isolated through peritoneal washing with cold DMEM (HyClone, Logan, Utah, USA) containing 10% FBS (fetal bovine serum; HyClone) and 1% penicillin-streptomycin. After centrifugation, cells were resuspended and counted using a TC20 Cell Counter (Bio-Rad Laboratories, Hercules, Calif., USA). Peritoneal secretory cells were left in a 24-well plate overnight at 37° C., and non-adherent cells were removed. The cells were then stimulated with 100 ng/ml lipopolysaccharide (LPS) for 24 hours. The supernatant was collected during cytokine analysis, and the level of TNFα in the supernatant was measured using BD OptEIA mouse ELISA sets (BD Biosciences, San Diego, Calif., USA) according to the manufacturer's protocol. […] IC50 (μM) values were measured twice, respectively, and expressed as mean±standard deviation.

lymphedema tissue = assay: Histological (H&E) analysis of lymphedema tissue of the right hind leg; format: in vivo; conditions: 7th day after surgery, right hind leg of mouse
From the text: as §1
In FIG. 3A, the scale bar of the upper panel is 500 μm, and the scale bar of the lower panel is 100 μm.
In FIG. 4A, the scale bar of the upper panel is 200 μm, and the scale bar of the lower panel is 100 μm.

[3] = Pharmacokinetic analysis in mice after I.V. and oral administration; format: in vivo, mouse; conditions: male CD-1 mice; for Cmax: read-out: Cmax (maximum plasma concentration)
Experimental: Compounds were administered to 5-week-old male CD-1 mice through 1 mg/kg tail vein administration (administration volume of 5 mL/kg), 20 mg/kg oral administration, and 100 mg/kg oral administration, respectively. Three mice were used for each independent experiment. Blood samples were taken in an amount of 20 μL to 30 μL via the saphenous vein at 5, 15, 30, 60, 120, 180, 360, and 1440 minutes.
In addition, pharmacokinetic parameters were calculated from non-compartmental analysis using Win Non-lin.
In Table 3, T1/2 denotes the terminal half-life, Cmax denotes the maximum plasma concentration, AUC-O denotes the area under the plasma concentration-time curve from time zero to infinity, and indicates exposure concentration of whole blood, and BA represents bioavailability expressed as (AUCpo/AUCiv)×100. […] Cmax and AUC∞ are mean±SD values obtained from three male ICR mice. Regarding blood exposure during systemic circulation of the compound, the compound was orally administered at an amount of 100 mg/kg, and then, AUC (area under the curve) was measured, and the obtained measurements were compared.

[4] = system: PPARγ and a target protein Fabp4; assay: Expression of PPARγ and Fabp4 in lymphedema tissue (western blot, mRNA); format: in vivo; conditions: mouse
[5] = Physicochemical properties (pKa, logP, solubility)
From the text: Compound 1 is butein and the therapeutic effect on lymphedema thereof is disclosed in Korean Patent Publication No. 10-1533197 (published on Jul. 2, 2015).

[6] = mouse, plasma, iv, I.V, 1 mg/Kg
[7] = mouse, plasma, po, P.O, 20 mg/Kg

melting point: 204.9 °C
IC50 [2]: 14.6 ± 1.56 µM
T1/2 (terminal half-life) ([3]; I.V, 1 mg/Kg): 81.6 min
Tmax ([3]; I.V, 1 mg/Kg): 12 min
T1/2 (terminal half-life) ([3]; P.O, 20 mg/Kg): 34.2 min
Tmax ([3]; P.O, 20 mg/Kg): 24 min
Cmax (maximum plasma concentration) ([3]; P.O, 100 mg/Kg): 1600 ng/mL
T1/2 (terminal half-life) ([3]; P.O, 100 mg/Kg): 21 min
Tmax ([3]; P.O, 100 mg/Kg): 24 min
BA (bioavailability) ([3]; P.O, 100 mg/Kg, (AUCpo/AUCiv)×100): 7.5%
AUC(0-inf) [3, 6]: 163 ng·h/mL
Cmax [3, 6]: 110 ng/mL
AUC(0-inf) [3, 7]: 141 ng·h/mL
bioavailability ([3]; mouse, plasma, po, P.O, 20 mg/Kg, (AUCpo/AUCiv)×100, read-out: BA (bioavailability)): 4%
Cmax [3, 7]: 83 ng/mL
logP (partition coefficient) [5]: 3.47
solubility ([5]; water solubility, read-out: Solubility): 136 µg/mL (≈ 361 µM)
SMILES: O=C(Oc1cc(O)ccc1C(=O)/C=C/c1ccc(O)c(O)c1)c1ccccc1 [compound 14a, (E)-2-(3-(3,4-dihydroxyphenyl)acryloyl)-5-hydroxyphenyl benzoate]
volume of lymphedema reduced by [1]: 70%
expression level of TNFα mRNA in lymphedema tissue (FIG. 3B) (TNFα): decreased
distribution of PPARγ in the epidermal layer of lymphedema tissue (FIG. 4B) (PPARγ): suppressed
development of adipose tissue in the epidermal layer (H&E, FIG. 4A) (lymphedema tissue): inhibiting the development of adipose tissue in the epidermal layer
neutrophil infiltration and epidermal layer of lymphedema tissue (H&E, FIG. 3A) (lymphedema tissue): decreased neutrophil infiltration and ameliorated the epidermal layer of lymphedema tissue
levels of PPARγ and Fabp4 mRNA (FIG. 4D) ([4]; lymphedema tissue): more significant efficacy even compared to compound 1
expression of PPARγ and Fabp4 in lymphedema tissue (western blot, FIG. 4C) [4]: reduced the expression of PPARγ
